This is an account of results in article PMC8490825 (Frontiers in Molecular Biosciences, 2021).

The structures appear in SMILES notation. Where a SMILES comes first, the peptide text is derived from it. Bridges are numbered along the chain shown (N, C = ends).

The target of one experiment is hNaV1.7 (Homo sapiens, UniProt Q15858). Description: cell-based. The class given is cell-based.
For a further experiment, the target named is hNaV1.1 (Homo sapiens, UniProt P35498). Description: cell-based. The class given is cell-based.

Chain of hNaV1.7 (Q15858 whole entry, looked up): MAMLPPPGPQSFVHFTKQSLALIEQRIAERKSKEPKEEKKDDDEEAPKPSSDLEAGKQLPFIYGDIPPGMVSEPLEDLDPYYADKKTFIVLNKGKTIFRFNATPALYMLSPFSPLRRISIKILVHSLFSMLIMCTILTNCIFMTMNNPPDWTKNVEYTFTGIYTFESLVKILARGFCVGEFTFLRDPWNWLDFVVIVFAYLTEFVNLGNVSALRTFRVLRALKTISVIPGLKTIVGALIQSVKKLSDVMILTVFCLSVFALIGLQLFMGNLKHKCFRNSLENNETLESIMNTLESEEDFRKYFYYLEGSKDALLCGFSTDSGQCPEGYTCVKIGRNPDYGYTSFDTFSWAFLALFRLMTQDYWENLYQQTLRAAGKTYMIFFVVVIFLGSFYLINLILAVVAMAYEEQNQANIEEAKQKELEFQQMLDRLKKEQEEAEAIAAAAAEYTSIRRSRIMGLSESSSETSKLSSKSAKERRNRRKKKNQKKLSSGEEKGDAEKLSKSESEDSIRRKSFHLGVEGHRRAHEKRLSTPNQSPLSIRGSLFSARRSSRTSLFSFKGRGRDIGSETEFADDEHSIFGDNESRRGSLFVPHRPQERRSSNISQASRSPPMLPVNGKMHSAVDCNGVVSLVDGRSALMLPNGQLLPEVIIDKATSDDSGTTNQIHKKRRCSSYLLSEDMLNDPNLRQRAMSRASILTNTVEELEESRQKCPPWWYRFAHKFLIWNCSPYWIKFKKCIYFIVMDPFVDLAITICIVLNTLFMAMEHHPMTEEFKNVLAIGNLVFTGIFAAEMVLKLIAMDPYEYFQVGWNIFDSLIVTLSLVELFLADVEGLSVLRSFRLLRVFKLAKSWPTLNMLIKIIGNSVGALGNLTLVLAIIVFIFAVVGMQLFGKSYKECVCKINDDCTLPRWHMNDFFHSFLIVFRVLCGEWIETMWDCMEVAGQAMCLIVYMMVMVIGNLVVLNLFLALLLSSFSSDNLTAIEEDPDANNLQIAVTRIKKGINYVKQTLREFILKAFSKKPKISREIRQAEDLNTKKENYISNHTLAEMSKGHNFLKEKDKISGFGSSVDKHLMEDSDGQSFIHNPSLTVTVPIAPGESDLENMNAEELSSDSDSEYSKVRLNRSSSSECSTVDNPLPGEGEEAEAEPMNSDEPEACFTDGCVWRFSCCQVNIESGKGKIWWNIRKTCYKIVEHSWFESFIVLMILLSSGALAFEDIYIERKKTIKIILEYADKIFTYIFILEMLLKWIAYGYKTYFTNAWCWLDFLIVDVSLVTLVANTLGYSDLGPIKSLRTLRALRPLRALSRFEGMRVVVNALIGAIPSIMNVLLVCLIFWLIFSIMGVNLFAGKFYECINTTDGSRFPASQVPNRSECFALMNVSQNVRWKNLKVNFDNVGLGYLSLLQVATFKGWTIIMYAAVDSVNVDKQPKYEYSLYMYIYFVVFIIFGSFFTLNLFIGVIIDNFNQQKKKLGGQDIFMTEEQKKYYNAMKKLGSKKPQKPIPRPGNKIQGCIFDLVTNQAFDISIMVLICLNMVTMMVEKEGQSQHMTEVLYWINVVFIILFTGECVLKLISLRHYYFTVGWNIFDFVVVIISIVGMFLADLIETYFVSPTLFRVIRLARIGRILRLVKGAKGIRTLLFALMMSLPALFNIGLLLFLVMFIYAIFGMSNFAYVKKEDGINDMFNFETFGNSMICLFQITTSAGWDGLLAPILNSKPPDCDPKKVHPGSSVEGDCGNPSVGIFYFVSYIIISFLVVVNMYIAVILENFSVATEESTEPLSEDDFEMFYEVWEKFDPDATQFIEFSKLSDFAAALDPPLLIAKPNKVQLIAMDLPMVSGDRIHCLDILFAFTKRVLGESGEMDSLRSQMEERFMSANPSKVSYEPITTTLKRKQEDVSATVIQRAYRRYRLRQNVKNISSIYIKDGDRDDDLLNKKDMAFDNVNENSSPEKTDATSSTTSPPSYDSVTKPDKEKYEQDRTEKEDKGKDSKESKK

As to `CSCC[C@@H]1NC(=O)CNC(=O)[C@H](CC(C)C)NC(=O)[C@@H](NC(=O)[C@H](CC(=O)O)NC(=O)[C@H](CC(=O)O)NC(=O)CN)CSSC[C@@H]2NC(=O)[C@@H]3CSSC[C@@H](C(=O)N[C@@H](CCCCN)C(=O)N[C@@H](Cc4ccc(O)cc4)C(=O)N[C@@H](CCC(N)=O)C(=O)N[C@@H](CC(C)C)C(=O)N[C@@H](Cc4c[nH]c5ccccc45)C(=O)O)NC(=O)[C@H](Cc4c[nH]c5ccccc45)NC(=O)[C@H](CCC(N)=O)NC(=O)[C@H](CC(=O)O)NC(=O)[C@H](CCCCN)NC(=O)[C@H](CCCNC(=N)N)NC(=O)[C@H](CO)NC(=O)[C@H](CSSC[C@H](NC(=O)[C@H](CO)NC(=O)[C@H](CO)NC(=O)[C@H](Cc4ccccc4)NC1=O)C(=O)N[C@@H](CC(=O)O)C(=O)N1CCC[C@H]1C(=O)N[C@@H](CC(N)=O)C(=O)N[C@@H](CC(N)=O)C(=O)N[C@@H](C)C(=O)N[C@@H](CCCCN)C(=O)N3)NC(=O)[C@H](CCCCN)NC(=O)[C@H](CCCNC(=N)N)NC(=O)[C@H](CC(N)=O)NC(=O)[C@@H]1CCCN1C2=O` [Peptide D15A] (H-GDDCLGMFSSCDPNNAKCCPNRKCSRKDQWCKYQLW-OH; disulfide 4-19, 11-24, 18-31), the IC50 against hNaV1.7 and on hNaV1.1 was greater than 1000 nM throughout.
Turning to `CSCC[C@@H]1NC(=O)CNC(=O)[C@H](CC(C)C)NC(=O)[C@@H](NC(=O)[C@H](CC(=O)O)NC(=O)[C@H](CC(=O)O)NC(=O)CN)CSSC[C@@H]2NC(=O)[C@@H]3CSSC[C@@H](C(=O)N[C@@H](CCCCN)C(=O)N[C@@H](Cc4ccc(O)cc4)C(=O)N[C@@H](CCC(N)=O)C(=O)N[C@@H](CC(C)C)C(=O)N[C@@H](Cc4c[nH]c5ccccc45)C(=O)O)NC(=O)[C@H](Cc4c[nH]c5ccccc45)NC(=O)[C@H](CCC(N)=O)NC(=O)[C@H](C)NC(=O)[C@H](CCCCN)NC(=O)[C@H](CCCNC(=N)N)NC(=O)[C@H](CO)NC(=O)[C@H](CSSC[C@H](NC(=O)[C@H](CO)NC(=O)[C@H](CO)NC(=O)[C@H](Cc4ccccc4)NC1=O)C(=O)N[C@@H](CC(=O)O)C(=O)N1CCC[C@H]1C(=O)N[C@@H](CC(N)=O)C(=O)N[C@@H](CC(N)=O)C(=O)N[C@@H](CC(=O)O)C(=O)N[C@@H](CCCCN)C(=O)N3)NC(=O)[C@H](CCCCN)NC(=O)[C@H](CCCNC(=N)N)NC(=O)[C@H](CC(N)=O)NC(=O)[C@@H]1CCCN1C2=O` [Peptide D27A] (H-GDDCLGMFSSCDPNNDKCCPNRKCSRKAQWCKYQLW-OH; disulfide 4-19, 11-24, 18-31), the IC50 (as a rule, the midpoint of a concentration-inhibition curve) against hNaV1.7 is 353 nM; against hNaV1.1, 287 nM.
For the compound `CSCC[C@@H]1NC(=O)CNC(=O)[C@H](CC(C)C)NC(=O)[C@@H](NC(=O)[C@H](CC(=O)O)NC(=O)[C@H](CC(=O)O)NC(=O)CN)CSSC[C@@H]2NC(=O)[C@@H]3CSSC[C@@H](C(=O)N[C@@H](CCCCN)C(=O)N[C@@H](Cc4ccc(O)cc4)C(=O)N[C@@H](CCC(N)=O)C(=O)N[C@@H](CC(C)C)C(=O)N[C@@H](Cc4c[nH]c5ccccc45)C(=O)O)NC(=O)[C@H](Cc4c[nH]c5ccccc45)NC(=O)[C@H](CCC(N)=O)NC(=O)[C@H](CC(=O)O)NC(=O)[C@H](CCCCN)NC(=O)[C@H](CCCNC(=N)N)NC(=O)[C@H](CO)NC(=O)[C@H](CSSC[C@H](NC(=O)[C@H](CO)NC(=O)[C@H](CO)NC(=O)[C@H](C)NC1=O)C(=O)N[C@@H](CC(=O)O)C(=O)N1CCC[C@H]1C(=O)N[C@@H](CC(N)=O)C(=O)N[C@@H](CC(N)=O)C(=O)N[C@@H](CC(=O)O)C(=O)N[C@@H](CCCCN)C(=O)N3)NC(=O)[C@H](CCCCN)NC(=O)[C@H](CCCNC(=N)N)NC(=O)[C@H](CC(N)=O)NC(=O)[C@@H]1CCCN1C2=O` [Peptide F7A] (H-GDDCLGMASSCDPNNDKCCPNRKCSRKDQWCKYQLW-OH; disulfide 4-19, 11-24, 18-31), at hNaV1.7, the half-inhibitory concentration (IC50) was greater than 1000 nM and the “inhibition of NaV1.7, in words” value was “completely lost its inhibition”. At hNaV1.1, the IC50 was greater than 1000 nM and the “inhibition of NaV1.1, in words” value is recorded as “completely lost its inhibition”.
As for `CSCC[C@@H]1NC(=O)CNC(=O)[C@H](CC(C)C)NC(=O)[C@@H](NC(=O)[C@H](CC(=O)O)NC(=O)[C@H](CC(=O)O)NC(=O)CN)CSSC[C@@H]2NC(=O)[C@@H]3CSSC[C@@H](C(=O)N[C@@H](C)C(=O)N[C@@H](Cc4ccc(O)cc4)C(=O)N[C@@H](CCC(N)=O)C(=O)N[C@@H](CC(C)C)C(=O)N[C@@H](Cc4c[nH]c5ccccc45)C(=O)O)NC(=O)[C@H](Cc4c[nH]c5ccccc45)NC(=O)[C@H](CCC(N)=O)NC(=O)[C@H](CC(=O)O)NC(=O)[C@H](CCCCN)NC(=O)[C@H](CCCNC(=N)N)NC(=O)[C@H](CO)NC(=O)[C@H](CSSC[C@H](NC(=O)[C@H](CO)NC(=O)[C@H](CO)NC(=O)[C@H](Cc4ccccc4)NC1=O)C(=O)N[C@@H](CC(=O)O)C(=O)N1CCC[C@H]1C(=O)N[C@@H](CC(N)=O)C(=O)N[C@@H](CC(N)=O)C(=O)N[C@@H](CC(=O)O)C(=O)N[C@@H](CCCCN)C(=O)N3)NC(=O)[C@H](CCCCN)NC(=O)[C@H](CCCNC(=N)N)NC(=O)[C@H](CC(N)=O)NC(=O)[C@@H]1CCCN1C2=O` [Peptide K31A] (H-GDDCLGMFSSCDPNNDKCCPNRKCSRKDQWCAYQLW-OH; disulfide 4-19, 11-24, 18-31), at hNaV1.7, the IC50 was greater than 1000 nM and the “inhibition of NaV1.7, in words” value was “loss of activity”. At hNaV1.1, the IC50 was greater than 1000 nM and the “inhibition of NaV1.1, in words” value was “loss of activity”.
`CSCC[C@@H]1NC(=O)CNC(=O)[C@H](CC(C)C)NC(=O)[C@@H](NC(=O)[C@H](CC(=O)O)NC(=O)[C@H](CC(=O)O)NC(=O)CN)CSSC[C@@H]2NC(=O)[C@@H]3CSSC[C@@H](C(=O)N[C@@H](CCCCN)C(=O)N[C@@H](Cc4ccc(O)cc4)C(=O)N[C@@H](CCC(N)=O)C(=O)N[C@@H](C)C(=O)N[C@@H](Cc4c[nH]c5ccccc45)C(=O)O)NC(=O)[C@H](Cc4c[nH]c5ccccc45)NC(=O)[C@H](CCC(N)=O)NC(=O)[C@H](CC(=O)O)NC(=O)[C@H](CCCCN)NC(=O)[C@H](CCCNC(=N)N)NC(=O)[C@H](CO)NC(=O)[C@H](CSSC[C@H](NC(=O)[C@H](CO)NC(=O)[C@H](CO)NC(=O)[C@H](Cc4ccccc4)NC1=O)C(=O)N[C@@H](CC(=O)O)C(=O)N1CCC[C@H]1C(=O)N[C@@H](CC(N)=O)C(=O)N[C@@H](CC(N)=O)C(=O)N[C@@H](CC(=O)O)C(=O)N[C@@H](CCCCN)C(=O)N3)NC(=O)[C@H](CCCCN)NC(=O)[C@H](CCCNC(=N)N)NC(=O)[C@H](CC(N)=O)NC(=O)[C@@H]1CCCN1C2=O` [Peptide L34A] (H-GDDCLGMFSSCDPNNDKCCPNRKCSRKDQWCKYQAW-OH; disulfide 4-19, 11-24, 18-31): the IC50 at hNaV1.7 and against hNaV1.1 was greater than 1000 nM throughout.
Take `CC(C)C[C@@H]1NC(=O)[C@@H](NC(=O)[C@H](CC(=O)O)NC(=O)[C@H](CC(=O)O)NC(=O)CN)CSSC[C@@H]2NC(=O)[C@@H]3CSSC[C@@H](C(=O)N[C@@H](CCCCN)C(=O)N[C@@H](Cc4ccc(O)cc4)C(=O)N[C@@H](CCC(N)=O)C(=O)N[C@@H](CC(C)C)C(=O)N[C@@H](Cc4c[nH]c5ccccc45)C(=O)O)NC(=O)[C@H](Cc4c[nH]c5ccccc45)NC(=O)[C@H](CCC(N)=O)NC(=O)[C@H](CC(=O)O)NC(=O)[C@H](CCCCN)NC(=O)[C@H](CCCNC(=N)N)NC(=O)[C@H](CO)NC(=O)[C@H](CSSC[C@H](NC(=O)[C@H](CO)NC(=O)[C@H](CO)NC(=O)[C@H](Cc4ccccc4)NC(=O)[C@H](C)NC(=O)CNC1=O)C(=O)N[C@@H](CC(=O)O)C(=O)N1CCC[C@H]1C(=O)N[C@@H](CC(N)=O)C(=O)N[C@@H](CC(N)=O)C(=O)N[C@@H](CC(=O)O)C(=O)N[C@@H](CCCCN)C(=O)N3)NC(=O)[C@H](CCCCN)NC(=O)[C@H](CCCNC(=N)N)NC(=O)[C@H](CC(N)=O)NC(=O)[C@@H]1CCCN1C2=O` [Peptide M6A] (H-GDDCLGAFSSCDPNNDKCCPNRKCSRKDQWCKYQLW-OH; disulfide 4-19, 11-24, 18-31): the IC50 against hNaV1.7 and against hNaV1.1 was greater than 1000 nM each time.
Turning to `CSCC[C@@H]1NC(=O)CNC(=O)[C@H](CC(C)C)NC(=O)[C@@H](NC(=O)[C@H](CC(=O)O)NC(=O)[C@H](CC(=O)O)NC(=O)CN)CSSC[C@@H]2NC(=O)[C@@H]3CSSC[C@@H](C(=O)N[C@@H](CCCCN)C(=O)N[C@@H](Cc4ccc(O)cc4)C(=O)N[C@@H](CCC(N)=O)C(=O)N[C@@H](CC(C)C)C(=O)N[C@@H](Cc4c[nH]c5ccccc45)C(=O)O)NC(=O)[C@H](Cc4c[nH]c5ccccc45)NC(=O)[C@H](CCC(N)=O)NC(=O)[C@H](CC(=O)O)NC(=O)[C@H](CCCCN)NC(=O)[C@H](CCCNC(=N)N)NC(=O)[C@H](CO)NC(=O)[C@H](CSSC[C@H](NC(=O)[C@H](CO)NC(=O)[C@H](CO)NC(=O)[C@H](Cc4ccccc4)NC1=O)C(=O)N[C@@H](CC(=O)O)C(=O)N[C@@H](C)C(=O)N[C@@H](CC(N)=O)C(=O)N[C@@H](CC(N)=O)C(=O)N[C@@H](CC(=O)O)C(=O)N[C@@H](CCCCN)C(=O)N3)NC(=O)[C@H](CCCCN)NC(=O)[C@H](CCCNC(=N)N)NC(=O)[C@H](CC(N)=O)NC(=O)[C@@H]1CCCN1C2=O` [Peptide P12A] (H-GDDCLGMFSSCDANNDKCCPNRKCSRKDQWCKYQLW-OH; disulfide 4-19, 11-24, 18-31), the IC50 against hNaV1.7 and against hNaV1.1 was greater than 1000 nM throughout.
In the case of `CSCC[C@@H]1NC(=O)CNC(=O)[C@H](CC(C)C)NC(=O)[C@@H](NC(=O)[C@H](CC(=O)O)NC(=O)[C@H](CC(=O)O)NC(=O)CN)CSSC[C@@H]2NC(=O)[C@@H]3CSSC[C@@H](C(=O)N[C@@H](CCCCN)C(=O)N[C@@H](Cc4ccc(O)cc4)C(=O)N[C@@H](CCC(N)=O)C(=O)N[C@@H](CC(C)C)C(=O)N[C@@H](Cc4c[nH]c5ccccc45)C(=O)O)NC(=O)[C@H](Cc4c[nH]c5ccccc45)NC(=O)[C@H](C)NC(=O)[C@H](CC(=O)O)NC(=O)[C@H](CCCCN)NC(=O)[C@H](CCCNC(=N)N)NC(=O)[C@H](CO)NC(=O)[C@H](CSSC[C@H](NC(=O)[C@H](CO)NC(=O)[C@H](CO)NC(=O)[C@H](Cc4ccccc4)NC1=O)C(=O)N[C@@H](CC(=O)O)C(=O)N1CCC[C@H]1C(=O)N[C@@H](CC(N)=O)C(=O)N[C@@H](CC(N)=O)C(=O)N[C@@H](CC(=O)O)C(=O)N[C@@H](CCCCN)C(=O)N3)NC(=O)[C@H](CCCCN)NC(=O)[C@H](CCCNC(=N)N)NC(=O)[C@H](CC(N)=O)NC(=O)[C@@H]1CCCN1C2=O` [Peptide Q28A] (H-GDDCLGMFSSCDPNNDKCCPNRKCSRKDAWCKYQLW-OH; disulfide 4-19, 11-24, 18-31), the half-maximal inhibitory concentration (IC50) against hNaV1.7 and against hNaV1.1 was greater than 1000 nM throughout.
